Test results reported in patent publication US6423752B1, “Indane dimer compounds with smooth muscle relaxing and/or mast cell stabilizing and/or anti-inflammatory activity” (Venantius Limited, priority 1995, dated 2002).
Counter-ions that a name gives are not always drawn. Like-named read-outs stand apart in the source and are kept apart here.

Key:
[1] = system: mast cells; experiment: Histamine release assay (compound 48/80 stimulated mast cells); type: cell-based, Wistar rats; conditions: 2 × 10^−5 M, rat peritoneal mast cells; for inhibition at 20 µM: Rattus norvegicus, Mast cell, read-out: Percentage Inhibition of Histamine Release
Description: (§1) The compounds were assessed for their ability to stabilize mast cell membranes in vitro. Mast cells treated with the compounds and un-treated mast cells were stimulated to release histamine. A reduction in histamine release by the treated cells compared to the untreated cells indicates stabilisation of the membrane. The compounds were assessed for their ability to relax smooth muscle in vitro. Intestinal smooth muscle was stimulated to contract, using calcium chloride and subsequently treated with the compounds, relaxation of the contraction was measured for each compound. The effects of the compounds were also studied on relaxation of guinea-pig tracheal muscle. In the rat paw oedema test, the drugs were administered systemically prior to inducing inflammation by the injection of carageenan below the plantar aponeurosis of the hind paw. The volume of the paw was determined both before and after treatment as an index of oedema. In the mouse ear oedema test, the drugs were administered topically prior to inducing inflammation by the topical application of arachidonic acid. The width of the ear was determined both before and after treatment as an index of oedema.
The buffered salt solution (BSS) was prepared in advance (NaCl 137 mM; KCl 2.7 mM; MgCl2 1.0 mM; CaCl2 0.5 mM, NaH2PO4 0.4 mM; Glucose 5.6 mM; HEPES 10 mM). This was dispensed into test tubes and heated to 37° C., each test tube contained 4.5 ml BSS. The solvent blank was supplemented with 0.5% (v/v) dimethyl sulphoxide (DMSO) or 0.5% (v/v) distilled water (dH2O). The two positive controls were supplemented with 0.5% (v/v) dH2O/2×10^−5M disodium cromoglycate (DSCG) and 0.5% (v/v) DMSO/2×10^−5M DSCG. The test compounds' incubation tubes contained 2×10^−5M test compound/0.5% (v/v) DMSO. The basal release, maximum release and total histamine content incubation tubes contained no additions.
Female Wistar rats (200-300 g) were killed in an atmosphere of saturated CO2. Pre-warmed BSS (10 ml) was injected i.p. and the abdomen was massaged for 3 min. The BSS, with suspended mast cells and other cells, was aspirated following a mid-line incision. The aspirate was centrifuged for 5 min at 400 g and the supernatant removed. The cells were re-suspended in BSS, at 4° C., and centrifuged as before the cells were washed in this manner a total of three times. Following the final wash, the pelleted cells were stored at 4° C., for use as soon as possible.
The cells were re-suspended in 7 ml BSS. From this, 0.5 ml aliquots were transferred to each of the incubation tubes. After 10 min at 37° C. with gentle agitation, Compound 48/80 was added to a final concentration of […], in order to stimulate histamine release. The cell stimulation was stopped after 2 min by the addition of 0.5 ml ice cold BSS, the incubation tubes were transferred to an ice bath. The cell suspensions were centrifuged for 5 min at 400 g. The “total histamine content” tube was placed at 100° C. for 2 min prior to centrifugation. The supernatants were retained for histamine assay.
To 2 ml of supernatant from each tube was added 0.4 ml of 1M NaOH and 0.1 ml oPT (1% (w/v) in methanol). This was incubated at room temperature for 4 min. The reaction was stopped by the addition of 0.2 ml of 3M HCl. The supernatant from each incubation tube was assayed in duplicate and run simultaneously with a standard curve in the range 0-1000 ng/ml. The presence of the fluorescent product of the reaction was measured using a Shimazu RF-1501 spectrofluorophotometer set at λex=360 nm, λem=450 nm.
Each drug was tested on at least five animals (n=5). The results were expressed as a percentage of maximum, compound 48/80 induced, histamine release in the solvent blank sample. Each drug was compared to DSCG on the same tissues. The basal histamine release in untreated cells was noted, expressed as a percentage of the total histamine content of the cells in suspension. […]

[2] = system: ileum; experiment: Smooth muscle effects: CaCl2 induced contractions of ileum; parameters: species or system Guinea pigs; conditions: for inhibition at 3 µM / inhibition at 10 µM / inhibition at 0.3 µM / inhibition at 0.03 µM / inhibition at 1 µM / inhibition at 0.1 µM: Cavia porcellus, read-out: Percentage Inhibition of CaCl2 Induced Contractions
Description: as §1
(§2) Guinea pigs (350 g approx.), of either sex, were killed in an atmosphere of saturated CO2. The abdomen was opened by a mid-line incision and the small intestine was removed. The trachea was removed and sectioned between the cartilage rings, which were then split through.
(§3) Segments of ileum (1-1.5 cm) were suspended in a high potassium, no calcium Krebs buffer (NaCl 160.44 mM); KCl 45 mM; MgCl2 0.54 mM; NaH2PO4 0.89 mM; NaH2CO3 24.9 mM; Glucose 11.1 mM). Tracheal sections were suspended in normal Krebs buffer (NaCl […]; KCl 4.7 mM; CaCl2 2.5 mM; MgCl2 0.54 mM; NaH2PO4 0.89 mM; NaHCO3 24.9 mM; Glucose 11.1 mM). The solutions were maintained at 37° C. by a jacketed organ bath and gassed with 95% O2 and 5% CO2. The tissues were anchored by thread to the bottom of the organ bath and suspended from force displacement transducers under a resting tension of 1 g approx. in the case of ileum and 4 g approx. in the case of trachea. Isotonic contractions were recorded using a MacLab/4e system in conjunction with the Chart 3.3.1 software package. Surplus tissue was stored at 4° C. in Krebs buffer, for a maximum of 48 hours.
(§4) Four segments of tissue were suspended and observed concurrently. Contractions were initiated by the addition of 25 μl of 1M CaCl2 (a final concentration of 2.5 mM). The contractions stabilized with time, 10-15 min, and could be maintained for up to 45 min. from the addition of the CaCl2. The tracheal sections were allowed to develop spontaneous resting tension over a period of 30 mins.
Stock solutions of drug were prepared at 10^−3M in 50% (v/v) DMSO. These were diluted to give; 10^−4M in 5% (v/v) DMSO and 10^−5M in 0.5% (v/v) DMSO. In cases of poor solubility the 10^−3M stock was made up in higher concentrations of DMSO. Solvent ‘blank’ solutions were prepared containing 50%, 5% and 0.5% (v/v) DMSO (or as appropriate). […] A second cumulative dose-response assay was carried out using DMSO ‘blank’ solutions only.
(§5) Each drug was tested, in duplicate, on at least three different animals (n=3). The results were expressed as percentage inhibition of the CaCl2 induced contraction in the case of ideal tissue and percentage relaxation in the case of tracheal tissue, for each tissue, at each concentration of drug in DMSO. The effect of DMSO, for each tissue at each concentration, was subtracted from the effect of the drug in DMSO, to give the effect of the drug alone. A log dose vs. response curve was plotted for each drug using the mean and the standard error of the mean for the cumulated results.

[3] = system: trachea; experiment: Smooth muscle effects: spontaneous tone of tracheal sections; parameters: species or system Guinea pigs; conditions: Cavia porcellus, guinea pig trachea, percentage relaxation
Description: as §1, §2, §3, §4
Stock solutions of drug were prepared at 10^−3M in 50% (v/v) DMSO. These were diluted to give; 10^−4M in 5% (v/v) DMSO and 10^−5M in 0.5% (v/v) DMSO. In cases of poor solubility the 10^−3M stock was made up in higher concentrations of DMSO. Solvent ‘blank’ solutions were prepared containing 50%, 5% and 0.5% (v/v) DMSO (or as appropriate). A cumulative dose-response assay was carried out in the range 5×10^−8M to 10^−5M. A second cumulative dose-response assay was carried out using DMSO ‘blank’ solutions only.
as §5

[4] = 3 × 10^−6 M, guinea pig ileum, DMSO effect subtracted
[5] = 10^−5 M, guinea pig ileum, DMSO effect subtracted
[6] = 3 × 10^−7 M, guinea pig ileum, DMSO effect subtracted
[7] = 3 × 10^−8 M, guinea pig ileum, DMSO effect subtracted
[8] = 10^−6 M, guinea pig ileum, DMSO effect subtracted
[9] = 10^−7 M, guinea pig ileum, DMSO effect subtracted

With `C=CCN(C1CCc2ccccc21)C1CC(=O)c2ccccc21` (centres unmarked) [5C6 BR] the “Percentage Inhibition of Histamine Release” value [1] was 78.84%, the inhibition at 3 µM [2, 4] was 8.72% and the inhibition at 10 µM [2, 5] was 31.6%.
`OC1CC(NC2CCc3ccccc32)c2ccccc21` (centres unmarked) [Compound 5C4, 3-(N-1-indanylamino)indan-1-ol] gave an inhibition at 20 µM [1] of 5.68%, an inhibition at 3 µM [2, 4] of 5.08% and an inhibition at 0.3 µM [2, 6] of -0.99%. The inhibition at 0.03 µM [2, 7] was -0.86%, the inhibition at 10 µM [2, 5] was 19.1% and the inhibition at 1 µM [2, 8] was 1.15%. It also gave an inhibition at 0.1 µM [2, 9] of -0.86%.
For `O=C1CC(N(Cc2ccccc2)C2Cc3ccccc3C2)c2ccccc21` (centres unmarked) [Compound 6C8, 3-(N-benzyl-N-2-indanylamino)-indan-1-one], the inhibition at 20 µM [1] was 88.6%, the inhibition at 0.03 µM [2] was 1.97% and the inhibition at 0.1 µM [2] was 2.94%. For the same compound, the inhibition at 0.3 µM [2] was 3.26%, the inhibition at 1 µM [2] was 4.69% and the inhibition at 3 µM [2] was 11.3%. For the same compound, the inhibition at 10 µM [2] was 31.1%.
Compound `O=C1CC(N(Cc2ccccc2)C2CCc3ccccc32)c2ccccc21` (centres unmarked) [Compound 5C7, 3-(N-benzyl-N-1-indanylamino)-indan-1-one] has an inhibition at 20 µM [1] of 24.1%, an inhibition at 0.03 µM [2] of 0.16% and an inhibition at 0.1 µM [2] of -0.44%. For the same compound, the inhibition at 0.3 µM [2] was -0.36%, the inhibition at 1 µM [2] was -1.72% and the inhibition at 3 µM [2] was 0%. For the same compound, the inhibition at 10 µM [2] was 2.06%.
In the case of `O=C1CC(NC2CCc3ccccc32)c2ccccc21` (centres unmarked) [Compound 5C8, 3-(N-1-indanylamino) -indan-1-one. Hydrochloride], the “Percentage Inhibition of Histamine Release” value ([1]; hydrochloride) is reported as 14.33%.
Work on `Cc1ccc(S(=O)(=O)N(C2Cc3ccccc3C2)C2CC(=O)c3ccccc32)cc1` (centres unmarked) [Compound 6C10, N-2-Indanyl-N-3-indan-1-onyl-p-toluenesulfonamide] yielded an inhibition at 20 µM [1] of 51.1%, an inhibition at 3 µM ([3]; 3 × 10^−6 M) of -0.75% and an inhibition at 10 µM ([3]; 10^−5 M) of 0.5%.
For `C=CCN(C1CCc2ccccc21)C1CC(=O)c2ccccc21` (centres unmarked) [Compound 5C11, 3-(N-prop-2-enyl-N-1-indanylamino)-indan-1-one hydrochloride], the “Percentage Inhibition of Histamine Release” value ([1]; hydrochloride) was 90.27%.
`O=C1CC(NC2Cc3ccccc3C2)c2ccccc21` (centres unmarked) [Compound 6C9, 3-(N-2-indanylamino)indan-1-one. Hydrochloride] was tested, and the “Percentage Inhibition of Histamine Release” value ([1]; hydrochloride) was 43.60%, the “Percentage Inhibition of CaCl2 Induced Contractions” value ([2]; 3 × 10^−6 M, guinea pig ileum, DMSO effect subtracted, Hydrochloride) was −0.86% and the “Percentage Inhibition of CaCl2 Induced Contractions” value ([2]; 3 × 10^−7 M, guinea pig ileum, DMSO effect subtracted, Hydrochloride) was −1.76%. The “Percentage Inhibition of CaCl2 Induced Contractions” value ([2]; 3 × 10^−8 M, guinea pig ileum, DMSO effect subtracted, Hydrochloride) was 0.31%, the “Percentage Inhibition of CaCl2 Induced Contractions” value ([2]; 10^−5 M, guinea pig ileum, DMSO effect subtracted, Hydrochloride) was 1.58% and the “Percentage Inhibition of CaCl2 Induced Contractions” value ([2]; 10^−6 M, guinea pig ileum, DMSO effect subtracted, Hydrochloride) was −2.94%. The “Percentage Inhibition of CaCl2 Induced Contractions” value ([2]; 10^−7 M, guinea pig ileum, DMSO effect subtracted, Hydrochloride) was 0.61%.
For `C=CCN(C1Cc2ccccc2C1)C1CC(=O)c2ccccc21` (centres unmarked) [Compound 6C12, 3-(N-prop-2-enyl-N-2-indanylamino)-indan-1-one hydrochloride], the “Percentage Inhibition of Histamine Release” value ([1]; hydrochloride) was 91.35%.
`O=C1CC(NC2Cc3ccccc3C2)c2ccccc21` (centres unmarked) [Compound 6C4, 3-(N-2-indanylamino)-indan-1-one] was tested, and the “Percentage Inhibition of Histamine Release” value [1] was 14.92%, the “Percentage Inhibition of CaCl2 Induced Contractions” value [2, 4] was 17.11% and the “Percentage Inhibition of CaCl2 Induced Contractions” value [2, 6] was 4.63%. The “Percentage Inhibition of CaCl2 Induced Contractions” value [2, 7] was 2.16%, the “Percentage Inhibition of CaCl2 Induced Contractions” value [2, 5] was 33.46% and the “Percentage Inhibition of CaCl2 Induced Contractions” value [2, 8] was 8.84%. For the same compound, the “Percentage Inhibition of CaCl2 Induced Contractions” value [2, 9] was 3.02%.
With `O=C1CC(NC2CCc3ccccc32)c2ccccc21` (centres unmarked) [Compound 5C3, 3-(N-1-indanylamino)-indan-1-one] the “Percentage Inhibition of Histamine Release” value [1] was 32.77%, the inhibition at 3 µM [2, 4] was 15.1% and the inhibition at 0.3 µM [2, 6] was 3.78%. It also gave an inhibition at 0.03 µM [2, 7] of 0.53%, an inhibition at 10 µM [2, 5] of 30% and an inhibition at 1 µM [2, 8] of 7.21%. For the same compound, the inhibition at 0.1 µM [2, 9] was 2.61%.
For `CN(C1CCc2ccccc21)C1CC(=O)c2ccccc21` (centres unmarked) [Compound 5C5, 3-(N-methyl-N-1-indanylamino)-indan-1-one], the inhibition at 20 µM [1] was 58.7%, the inhibition at 3 µM [2, 4] was 3.56% and the inhibition at 0.3 µM [2, 6] was 0.43%. It also gave an inhibition at 0.03 µM [2, 7] of -0.26%, an inhibition at 10 µM [2, 5] of 10.5% and an inhibition at 1 µM [2, 8] of 1.56%. The inhibition at 0.1 µM [2, 9] was 0.28%.
For `Cc1ccc(S(=O)(=O)N(C2CCc3ccccc32)C2CC(=O)c3ccccc32)cc1` (centres unmarked) [Compound 5C10, N-1-Indanyl-N-3-indan-1-onyl-p-toluenesulfonamide], the inhibition at 20 µM [1] was 40.8%.
